This note sets out measurements from ChEMBL document CHEMBL6083237, “Adenanthin exhibits anti-inflammatory effects by covalently targeting the p65 subunit in the NF-κB signaling pathway” (Eur J Med Chem, 2024).

The source made the active and inactive calls. The calls are words filed in the database; no cut-off is given here.

Experiment [1] deals with HEK-293T. As to the kind of experiment: Antiproliferative activity against HEK293T cells overexpressing p65 C38A mutant assessed as inhibition of cell proliferation incubated for 72 hrs by Alamar Blue dye based fluorescence analysis. The class given is functional. Particulars: Homo sapiens. In general terms: Resazurin is reduced to fluorescent resorufin, in cell work by metabolically active cells.

Experiment [2] can be described thus: Displacement of biotin-labeled p65 binding oligonucleotides from p65/p65-C38A mutant (unknown origin) overexpressed in HEK293T cell nuclear extract incubated for 2 hrs by electrophoretic mobility shift assay. The class given is subcellular, Homo sapiens, Nucleus. For orientation: A gel shift assay detects complexes by their altered migration in electrophoresis.

Experiment [3] in a line: Ratio of IC50 for antiproliferative activity against mutant HEK293T cells overexpressing p65 C38A mutant to IC50 for antiproliferative activity against HEK293T cells. The class given is functional, Homo sapiens.
In experiment [4] the target is T1, Transcription factor p65 (Homo sapiens, UniProt Q04206). The experiment is described as follows: Displacement of biotin-labeled p65 binding oligonucleotides from p65 (unknown origin) overexpressed in HEK293T cell nuclear extract incubated for 2 hrs by electrophoretic mobility shift assay. The class given is subcellular, Nucleus.
T1 sequence (Q04206 whole entry): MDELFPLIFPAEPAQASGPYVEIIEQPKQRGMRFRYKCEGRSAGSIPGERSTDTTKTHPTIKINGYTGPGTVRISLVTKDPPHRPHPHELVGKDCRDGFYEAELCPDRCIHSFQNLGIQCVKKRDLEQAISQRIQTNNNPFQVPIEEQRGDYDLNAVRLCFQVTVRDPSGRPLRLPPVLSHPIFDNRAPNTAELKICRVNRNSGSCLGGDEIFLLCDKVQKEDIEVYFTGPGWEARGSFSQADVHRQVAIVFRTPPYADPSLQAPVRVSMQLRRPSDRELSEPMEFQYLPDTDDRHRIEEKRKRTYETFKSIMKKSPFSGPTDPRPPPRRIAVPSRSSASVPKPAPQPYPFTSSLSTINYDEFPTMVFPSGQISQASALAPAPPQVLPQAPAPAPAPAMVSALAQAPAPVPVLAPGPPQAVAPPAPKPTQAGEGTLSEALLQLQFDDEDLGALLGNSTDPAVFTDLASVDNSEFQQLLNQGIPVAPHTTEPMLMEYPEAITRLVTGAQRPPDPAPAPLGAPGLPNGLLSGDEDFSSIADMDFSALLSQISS
Experiment [5] deals with RAW264.7. The experiment is described as follows: Inhibition of p65 nuclear translocation in LPS-stimulated mouse RAW264.7 cells at 1 to 10 uM incubated for 6 hrs by western blot analysis. The class given is cell-based. Particulars: dose 1-10 µM. For orientation: A western blot detects proteins with antibodies after separation by electrophoresis.
The target of experiment [6] is T1, Transcription factor p65. The experiment is described as follows: Binding affinity to recombinant FLAG-tagged p65 (unknown origin) expressed in HEK293T cells assessed as 490.2203 Da modification on Cys38 residue of C38EGRSAGSIPGERSTDTTK56 measured following LysC digestion at 10 uM incubated for 3 hrs by HCD/EThcD based mass spectrometry. The class given is cell-based.

Experiment [7] deals with HEK-293T. As to the kind of experiment: Antiproliferative activity against mutant HEK293T cells overexpressing p65 C38A mutant assessed as inhibition of cell proliferation incubated for 72 hrs by Alamar Blue dye based fluorescence analysis. The class given is functional. The following applies: Homo sapiens.
The subject of experiment [8] is RAW264.7. The experiment is described as follows: Inhibition of NF-kappaB signaling pathway in mouse RAW264.7 cells assessed as decrease in COX-2 protein expression at 10 to 75 uM incubated for 6 hrs by western blot analysis. The class given is cell-based. The following applies: dose 10-75 µM.
The target in experiment [9] is T2, NF-kappa-B inhibitor alpha (Mus musculus) (UniProt Q9Z1E3).
T2 sequence (whole entry): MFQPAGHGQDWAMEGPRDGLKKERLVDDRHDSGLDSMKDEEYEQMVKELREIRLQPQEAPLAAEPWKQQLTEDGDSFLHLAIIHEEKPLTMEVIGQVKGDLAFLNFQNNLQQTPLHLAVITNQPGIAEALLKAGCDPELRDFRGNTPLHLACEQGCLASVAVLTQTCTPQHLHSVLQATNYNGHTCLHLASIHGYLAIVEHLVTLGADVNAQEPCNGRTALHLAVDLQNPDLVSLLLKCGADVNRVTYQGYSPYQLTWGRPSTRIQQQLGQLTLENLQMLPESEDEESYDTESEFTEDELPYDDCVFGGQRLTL
As to the kind of experiment: Inhibition of IkappaB alpha phosphorylation in LPS-stimulated mouse RAW264.7 cells at 1 to 10 uM incubated for 6 hrs by western blot analysis. The class given is cell-based. The following applies: dose 1-10 µM.

The subject of experiment [10] is HEK-293T. As to the kind of experiment: Antiproliferative activity against HEK293T cells overexpressing p65 assessed as inhibition of cell proliferation incubated for 72 hrs by Alamar Blue dye based fluorescence analysis. The class given is functional. Particulars: Homo sapiens.
Experiment [11] relates to RAW264.7. As to the kind of experiment: Inhibition of p65 phosphorylation in LPS-stimulated mouse RAW264.7 cells at 1 to 10 uM incubated for 6 hrs by wester blot analysis. The class given is cell-based. The following applies: dose 1-10 µM.
Experiment [12] concerns the target T1, Transcription factor p65. As to the kind of experiment: Binding affinity to recombinant FLAG-tagged p65 (unknown origin) expressed in HEK293T cells assessed as retention time of carbamidomethylation on Cys38 residue of C38EGRSAGSIPGERSTDTTK56 with m/z 814.7164 measured following LysC digestion at 10 uM incubated for 3 hrs by HCD/EThcD based mass spectrometry. The class given is cell-based.

Experiment [13] deals with RAW264.7. The experiment is described as follows: Inhibition of NF-kappaB signaling pathway in mouse RAW264.7 cells assessed as decrease in iNOS protein expression at 10 to 75 uM incubated for 6 hrs by western blot analysis. Particulars: dose 10-75 µM. The class given is cell-based.
The subject of experiment [14] is HEK-293T. As to the kind of experiment: Antiproliferative activity against HEK293T cells assessed as inhibition of cell proliferation incubated for 72 hrs by Alamar Blue dye based fluorescence analysis. The class given is functional. The following applies: Homo sapiens.
Experiment [15] can be described thus: Ratio of IC50 for antiproliferative activity against HEK293T cells overexpressing p65 C38A mutant to IC50 for HEK293T cells overexpressing p65. The class given is functional, Homo sapiens.
The target in experiment [16] is T1, Transcription factor p65. The experiment is described as follows: Binding affinity to recombinant FLAG-tagged p65 (unknown origin) expressed in HEK293T cells assessed as retention time of carbamidomethylation on Cys38 residue of C38EGRSAGSIPGERSTDTTK56 with m/z 814.7165 measured following LysC digestion at 10 uM incubated for 3 hrs by HCD/EThcD based mass spectrometry. The class given is cell-based.

The term IC50 denotes the concentration that gives 50% inhibition. For `C=C1C(=O)[C@]23C[C@H]1C[C@H](OC(C)=O)[C@H]2[C@]1(C)[C@@H](OC(C)=O)C[C@H](O)C(C)(C)[C@H]1C(=O)[C@@H]3OC(C)=O` [ADENANTHIN], the IC50 in the experiment on HEK-293T [1] is 2 µM; in experiment [2], around 100 µM; at Transcription factor p65 [4], around 40 µM; with HEK-293T [7], 9.94 µM; in the experiment with HEK-293T [10] it was 0.81 µM; in the experiment on HEK-293T [14], 0.72 µM. The “Ratio IC50” value in experiment [3] came to 10; in experiment [15] it was 2. Besides, the inhibition entry with RAW264.7 [5], with RAW264.7 [8] and in the experiment with RAW264.7 [13] was “Active” in each case. On Transcription factor p65 [6], the result was Active. The inhibition entry (in [9]; with RAW264.7 [11]) was “Dose-dependent-effect” in each case. Besides, the Retention time at Transcription factor p65 [12] came to 14.6 min; at Transcription factor p65 [16], 14.4 min.
